Measured values taken from US11746100B2 (GLOBAL BLOOD THERAPEUTICS, INC., priority 2020, dated 2023).

These molecules were tested against T1, human ferroportin (Homo sapiens, UniProt Q9NP59) (assay: Biological in-vitro ferroportin internalization assay (luciferase reporter)). Conditions: average pEC50; stably-transfected CHO cell line expressing human ferroportin tagged to a luciferase reporter; 6 h incubation with test compound.
T1 construct: luciferase reporter (read with the Nano-Glo Luciferase Assay System); expressed in transfected cells; host or cells: CHO cells, stably transfected, expression induced with doxycycline
T1 sequence (Q9NP59 1-571): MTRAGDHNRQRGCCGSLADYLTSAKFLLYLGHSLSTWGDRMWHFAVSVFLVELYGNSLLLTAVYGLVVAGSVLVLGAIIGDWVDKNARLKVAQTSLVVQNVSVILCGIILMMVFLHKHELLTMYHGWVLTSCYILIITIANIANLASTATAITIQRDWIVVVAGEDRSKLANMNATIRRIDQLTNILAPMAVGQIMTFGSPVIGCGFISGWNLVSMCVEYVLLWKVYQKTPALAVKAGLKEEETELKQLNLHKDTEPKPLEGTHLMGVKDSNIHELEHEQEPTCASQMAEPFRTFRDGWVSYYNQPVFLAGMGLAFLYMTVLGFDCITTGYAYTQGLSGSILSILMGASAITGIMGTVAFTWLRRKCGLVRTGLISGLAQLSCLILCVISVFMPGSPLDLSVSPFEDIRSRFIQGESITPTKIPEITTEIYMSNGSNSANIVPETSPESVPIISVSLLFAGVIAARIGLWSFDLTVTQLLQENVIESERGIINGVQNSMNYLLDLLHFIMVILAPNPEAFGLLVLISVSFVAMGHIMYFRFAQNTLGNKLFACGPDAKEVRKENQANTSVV
Assay type: cell-based
How it was run: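 Read-out is Nano-Glo luciferase signal after 6 h compound exposure, with average pEC50 derived. Cells are a stable CHO line carrying luciferase-tagged human ferroportin, pre-loaded 24 h with ferric ammonium citrate and doxycycline-induced for 24 h.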

SMILES	pEC50
CN(C)CCOc1ccnc(-c2nc3c(c(N(C)CC(=O)N4CCCC4)n2)CCC3)c1 [Compound 417, 2-[(2-{4-[2-(dimethylamino)ethoxy]pyridin-2-yl}-5H,6H,7H-cyclopenta[d]pyrimidin-4-yl)(methyl)amino]-1-(pyrrolidin-1-yl)ethan-1-one]	7.1
CC(C)[C@H](C(=O)NC(C)(C)C)N(C)c1nc(-c2ccccn2)nc2c1CCC2 [Compound 114, (2R)—N-tert-butyl-3-methyl-2-{methyl[2-(pyridin-2-yl)-5H,6H,7H-cyclopenta[d]pyrimidin-4-yl]amino}butanamide]	7.6
C[C@H](C(=O)Nc1cccc(F)c1)N(C)c1nc(-c2cn(C)cn2)nc2c1CCC2 [Compound 277, (2R)—N-(3-fluorophenyl)-2-{methyl[2-(1-methyl-1H-imidazol-4-yl)-5H,6H,7H-cyclopenta[d]pyrimidin-4-yl]amino}propanamide]	8.2
C[C@H](C(=O)NC(C)(C)C)N(C)c1nc(-c2cn(C)cn2)nc2c1CCC2 [Compound 112, (2R)—N-tert-butyl-2-{methyl[2-(1-methyl-1H-imidazol-4-yl)-5H,6H,7H-cyclopenta[d]pyrimidin-4-yl]amino}propanamide]	8
O=C1CCN(c2nc(-c3ccccn3)nc3c2CCC3)CCN1 [Compound 50, 1-[2-(pyridin-2-yl)-5H,6H,7H-cyclopenta[d]pyrimidin-4-yl]-1,4-diazepan-5-one]	5.6
C[C@H](C(=O)NC(C)(C)C)N(C)c1nc(-c2cc(OC3COC3)ccn2)nc2c1CCC2 [Compound 305]	7.8
CN(CC(=O)NC(C)(C)CCO)c1nc(-c2ccccn2)nc2c1CCC2 [Compound 63, N-(4-hydroxy-2-methylbutan-2-yl)-2-{methyl[2-(pyridin-2-yl)-5H,6H,7H-cyclopenta[d]pyrimidin-4-yl]amino}acetamide]	7.2
C[C@H](C(=O)NC1CC(F)(F)C1)N(C)c1nc(-c2ccccn2)nc2c1CCC2 [Compound 109, (2R)—N-(3,3-difluorocyclobutyl)-2-{methyl[2-(pyridin-2-yl)-5H,6H,7H-cyclopenta[d]pyrimidin-4-yl]amino}propanamide]	7
CN(CC(=O)NC(C)(C)C)c1nc(-c2cc(OCC(C)(C)O)ccn2)nc2c1C(=O)CC2 [Compound 492, N-tert-butyl-2-({2-[4-(2-hydroxy-2-methylpropoxy)pyridin-2-yl]-5-oxo-5H,6H,7H-cyclopenta[d]pyrimidin-4-yl}(methyl)amino)acetamide]	6.6
CCN(CC)CCOc1ccnc(-c2nc3c(c(N(C)CC(=O)NC(C)(C)C)n2)CCC3)c1 [Compound 400, N-tert-butyl-2-[(2-{4-[2-(diethylamino)ethoxy]pyridin-2-yl}-5H,6H,7H-cyclopenta[d]pyrimidin-4-yl)(methyl)amino]acetamide]	8.2
CN(CC(=O)NC(C)(C)C)c1nc(-c2c[nH]cn2)nc2c1CCC2 [Compound 182, N-tert-butyl-2-{[2-(1H-imidazol-4-yl)-5H,6H,7H-cyclopenta[d]pyrimidin-4-yl](methyl)amino}acetamide]	7.6
CN(CC(=O)NC1CCCOC1)c1nc(-c2ccccn2)nc2c1CCC2 (stereo not drawn) [Compound 26, 2-{methyl[2-(pyridin-2-yl)-5H,6H,7H-cyclopenta[d]pyrimidin-4-yl]amino}-N-(oxan-3-yl)acetamide]	6.6
COc1ccnc(-c2nc3c(c(N(C)CC(=O)N4CC[C@@H](O)C4)n2)CCC3)c1 [Compound 471, 1-[(3R)-3-hydroxypyrrolidin-1-yl]-2-{[2-(4-methoxypyridin-2-yl)-5H,6H,7H-cyclopenta[d]pyrimidin-4-yl](methyl)amino}ethan-1-one]	7.4
C[C@@H]1C[C@@H](Oc2ccnc(-c3nc4c(c(N(C)CC(=O)NC(C)(C)C)n3)CCC4)c2)CN1C [Compound 488, N-tert-butyl-2-{[2-(4-{[(3R,5R)-1,5-dimethylpyrrolidin-3-yl]oxy}pyridin-2-yl)-5H,6H,7H-cyclopenta[d]pyrimidin-4-yl](methyl)amino}acetamide]	7.8
CCN(CC(=O)NC(C)(C)C)c1nc(-c2ccccn2)nc2c1CCC2 [Compound 36, N-tert-butyl-2-{ethyl[2-(pyridin-2-yl)-5H,6H,7H-cyclopenta[d]pyrimidin-4-yl]amino}acetamide]	7.3
C[C@H](CN(C)C)Oc1ccnc(-c2nc3c(c(N(C)CC(=O)NC4(C(F)(F)F)CC4)n2)CCC3)c1 [Compound 486, 2-{[2-(4-{[(2R)-1-(dimethylamino)propan-2-yl]oxy}pyridin-2-yl)-5H,6H,7H-cyclopenta[d]pyrimidin-4-yl](methyl)amino}-N-[1-(trifluoromethyl)cyclopropyl]acetamide]	7.4
Cc1cnc(-c2nc3c(c(N(C)CC(=O)NC(C)(C)C)n2)CCC3)cc1C [Compound 60, N-tert-butyl-2-{[2-(4,5-dimethylpyridin-2-yl)-5H,6H,7H-cyclopenta[d]pyrimidin-4-yl](methyl)amino}acetamide]	7.6
Cc1ccc(NC(=O)CN(C)c2nc(-c3cc(OCC(C)(C)O)ccn3)nc3c2CCC3)cn1 [Compound 302, 2-({2-[4-(2-hydroxy-2-methylpropoxy)pyridin-2-yl]-5H,6H,7H-cyclopenta[d]pyrimidin-4-yl}(methyl)amino)-N-(6-methylpyridin-3-yl)acetamide]	7.9
CN(CC(=O)Nc1ccc(F)cc1)c1nc(-c2cn(C)cn2)nc2c1CCC2 [Compound 202, N-(4-fluorophenyl)-2-{methyl[2-(1-methyl-1H-imidazol-4-yl)-5H,6H,7H-cyclopenta[d]pyrimidin-4-yl]amino}acetamide]	7.5
CN(CC(=O)NC(C)(C)C)c1nc(-c2cc3[nH]ncc3cn2)nc2c1CCC2 [Compound 176, N-tert-butyl-2-[methyl(2-{1H-pyrazolo[4,3-c]pyridin-6-yl}-5H,6H,7H-cyclopenta[d]pyrimidin-4-yl)amino]acetamide]	7.8
Cc1ccnc(-c2nc3c(c(N(C)CC(=O)NC4(C)CCOC4)n2)CCC3)c1 (stereo not drawn) [Compound 65, 2-{methyl[2-(4-methylpyridin-2-yl)-5H,6H,7H-cyclopenta[d]pyrimidin-4-yl]amino}-N-(3-methyloxolan-3-yl)acetamide]	7.6
CN(c1nc(-c2ccccn2)nc2c1CCC2)C1(C(=O)NC2CCCCC2)CC1 [Compound 17, N-cyclohexyl-1-{methyl[2-(pyridin-2-yl)-5H,6H,7H-cyclopenta[d]pyrimidin-4-yl]amino}cyclopropane-1-carboxamide]	6.6
CN(CC(=O)NC(C)(C)CO)c1nc(-c2cc(OCCO)ccn2)nc2c1CCC2 [Compound 148, N-(1-hydroxy-2-methylpropan-2-yl)-2-({2-[4-(2-hydroxyethoxy)pyridin-2-yl]-5H,6H,7H-cyclopenta[d]pyrimidin-4-yl}(methyl)amino)acetamide]	7.6
COc1ccnc(-c2nc3c(c(N(C)Cc4nc(-c5ccccc5)co4)n2)CCC3)c1 [Compound 380, 2-(4-methoxypyridin-2-yl)-N-methyl-N-[(4-phenyl-1,3-oxazol-2-yl)methyl]-5H,6H,7H-cyclopenta[d]pyrimidin-4-amine]	6.6
c1ccc(-c2nc3c(c(N4CCCOCC4)n2)CCC3)nc1 [Compound 93, 4-[2-(pyridin-2-yl)-5H,6H,7H-cyclopenta[d]pyrimidin-4-yl]-1,4-oxazepane]	6.1
Cc1cnc(NC(=O)CN(C)c2nc(-c3cc(OCCO)ccn3)nc3c2CCC3)cn1 [Compound 284, 2-({2-[4-(2-hydroxyethoxy)pyridin-2-yl]-5H,6H,7H-cyclopenta[d]pyrimidin-4-yl}(methyl)amino)-N-(5-methylpyrazin-2-yl)acetamide]	7.7
CN(CC(=O)NC(C)(C)C)c1nc(-c2cc(OCCO)ccn2)nc2c1CCC2 [Compound 44, N-tert-butyl-2-({2-[4-(2-hydroxyethoxy)pyridin-2-yl]-5H,6H,7H-cyclopenta[d]pyrimidin-4-yl}(methyl)amino)acetamide]	7.9
CN(c1nc(-c2cc(OCCO)ccn2)nc2c1CCC2)[C@H]1CCCN(c2cccc(F)c2)C1=O [Compound 320, (3S)-1-(3-fluorophenyl)-3-({2-[4-(2-hydroxyethoxy)pyridin-2-yl]-5H,6H,7H-cyclopenta[d]pyrimidin-4-yl}(methyl)amino)piperidin-2-one]	7.1
CN(C)CCSc1ccnc(-c2nc3c(c(N(C)CC(=O)NC(C)(C)C)n2)CCC3)c1 [Compound 499, N-tert-butyl-2-{[2-(4-{[2-(dimethylamino)ethyl]sulfanyl}pyridin-2-yl)-5H,6H,7H-cyclopenta[d]pyrimidin-4-yl](methyl)amino}acetamide]	8.2
Clc1ccnc(-c2nc3c(c(N4CCCCCC4)n2)CCC3)c1 [Compound 96, 1-[2-(4-chloropyridin-2-yl)-5H,6H,7H-cyclopenta[d]pyrimidin-4-yl]azepane]	6.6
